Assay results published in patent US9303049B2, “Nanodot and method for manufacturing the same” (National Sun Yat-sen University, priority 2013, dated 2016).

Key:
SK-Hep-1 cell [1] = experiment: Bioprobing and bioimaging, fluorescence microscopy of SK-Hep-1 cell; assay type: cell-based; details: for fluorescence signal in SK-Hep-1 cell: 48 hours incubation, nanodot solutions 20 mM, different excitation light sources
Description: SK-Hep-1 cell was incubated under 37° C. for 12 hours (overnight). Then avidin (purchased from Sigma) was added into the SK-Hep-1 cell to form a cell culture. […] Then the cell was fixed by paraformaldehyde.
SK-Hep-1 cell was incubated under 37° C. for 12 hours (overnight). Then avidin-FITC (purchased from Sigma) was added into the SK-Hep-1 cell to form a cell culture.
SK-Hep-1 cell was incubated under 37° C. for 12 hours (overnight). Then the 3-aminopropyltriethoxysilane nanodot solution (20 mM) prepared in example 4 and the avidin modified 3-aminopropyltriethoxysilane nanodot solution (20 mM) were added into this SK-Hep-1 cell to form two cell cultures respectively. […] Then the cell was fixed by paraformaldehyde. […] Referring to FIG. 10, FIGS. 10(a)-(d) show the SK-Hep-1 cell added with 3-aminopropyltriethoxysilane nanodot solution. FIGS. 10(m)-(p) show the SK-Hep-1 cell added with avidin modified 3-aminopropyltriethoxysilane nanodot solution. […] Therefore, the fluorescence signal of FIGS. 10(b)-(d) and (n)-(p) resulted from the nanodot. In addition, FIGS. 10(i)-(I) show the SK-Hep-1 cell added with avidin-FITC. […] FIGS. 13(a)-(c) show the images of the SK-Hep-1 cell added with 3-aminopropyltriethoxysilane nanodot solution and continuously irradiated with excitation light, wherein FIGS. 13(a)-(c) are the images observed at 0 minutes, 2 minutes and 5 minutes respectively. FIGS. 13(d)-(f) show the images of the SK-Hep-1 cell added with avidin-FITC and continuously irradiated with excitation light, wherein FIGS. 13(d)-(f) are the images observed at 0 minutes, 2 minutes and 5 minutes respectively. FIGS. 13(g)-(i) show the images of the SK-Hep-1 cell added with avidin modified 3-aminopropyltriethoxysilane nanodot solution and continuously irradiated with excitation light, wherein FIGS. 13(g)-(i) are the images observed at 0 minutes, 2 minutes and 5 minutes respectively. […] Therefore, the nanodot has better photo stability.

SK-Hep-1 cell [2] = experiment: Stability measurement of fluorescence under continuous excitation light in SK-Hep-1 cell; assay type: cell-based; details: continuously irradiated with excitation light, observed at 2 minutes and 5 minutes versus 0 minutes
Description: SK-Hep-1 cell was incubated under 37° C. for 12 hours (overnight). Then the 3-aminopropyltriethoxysilane nanodot solution (20 mM) prepared in example 4 and the avidin modified 3-aminopropyltriethoxysilane nanodot solution (20 mM) were added into this SK-Hep-1 cell to form two cell cultures respectively. […] Then the cell was fixed by paraformaldehyde. […] Referring to FIG. 10, FIGS. 10(a)-(d) show the SK-Hep-1 cell added with 3-aminopropyltriethoxysilane nanodot solution. FIGS. 10(m)-(p) show the SK-Hep-1 cell added with avidin modified 3-aminopropyltriethoxysilane nanodot solution. […] Therefore, the fluorescence signal of FIGS. 10(b)-(d) and (n)-(p) resulted from the nanodot. In addition, FIGS. 10(i)-(I) show the SK-Hep-1 cell added with avidin-FITC. […] FIGS. 13(a)-(c) show the images of the SK-Hep-1 cell added with 3-aminopropyltriethoxysilane nanodot solution and continuously irradiated with excitation light, wherein FIGS. 13(a)-(c) are the images observed at 0 minutes, 2 minutes and 5 minutes respectively. FIGS. 13(d)-(f) show the images of the SK-Hep-1 cell added with avidin-FITC and continuously irradiated with excitation light, wherein FIGS. 13(d)-(f) are the images observed at 0 minutes, 2 minutes and 5 minutes respectively. […]

| Substance | fluorescence signal in SK-Hep-1 cell (SK-Hep-1 cell [1]) | fluorescence after continuous irradiation (photo stability) (SK-Hep-1 cell [2]) | effect of avidin modification on entry into cells (SK-Hep-1 cell [1]; FIGS. 10(n)-(p) compared with FIGS. 10(b)-(d), SK-Hep-1 cell, 48 hours) |
| --- | --- | --- | --- |
| avidin-FITC: avidin-FITC purchased from Sigma; FITC is a conventional organic fluorescent dye widely applied in bioimaging | could not emit blue and red fluorescence | nearly no fluorescence |  |
| avidin modified 3-aminopropyltriethoxysilane nanodot: 3-aminopropyltriethoxysilane nanodot of example 4 modified with avidin | significant multiphoton fluorescence with red, green and blue lights emitted | only became slightly weak | enhance the efficiency of the nanodot to enter into cells and aggregate in cells |
| avidin | no fluorescence signal |  |  |
